In brackets after ≈: the same amount, converted by molar mass. Like-named read-outs stand apart in the source and are kept apart here.
Assay: Solubility testing of (Z)-endoxifen in single solvents
Assay type: physicochemical
Conditions: for solubility at 15 min: 25 °C, room temperature; for solubility at 15 min / solubility: thermodynamic from solid
Method: To test the solubility of (Z)-endoxifen in varying conditions, 10 mg of (Z)-endoxifen was added to a stoppered tube, and 0.01 ml of the selected solvent was added (1000 mg/ml solution). The tube was shaken vigorously for 1 minute and then incubated at a constant temperature of 25.0° C. for 15 minutes. If the solid was not completed dissolved, the tube was shaken again and placed at the constant temperature of 25.0° C. for another 15 minutes. If the solid was completely dissolved at this step, it was considered to be very soluble in the selected solvent system. If the solid was not dissolved by this step, another 0.09 ml was added (yielding a 100 mg/ml solution) and an attempt to further dissolve the solid was made by the same steps of shaking and incubating twice over as described previously. If the solid was completely dissolved at this step, it was considered freely soluble. If the solid was not dissolved by this step another 0.2 ml was added (yielding a 33.3 mg/ml solution) and an attempt to further dissolve the solid was made by the same steps of shaking and incubating twice over as described previously. If the solid was completely dissolved at this step, it was considered soluble. If the solid was not dissolved by this step another, 0.7 ml was added (yielding a 10 mg/ml solution) and an attempt to further dissolve the solid was made by the same steps of shaking and incubating twice over as described previously. If the solid was completely dissolved at this step, it was considered sparingly soluble. If the solid was not dissolved by this step the sample was considered to be slightly soluble or very slightly soluble and the solution was heated until the boiling point of the solvent system (max 100° C.) under stirring with a rate of 0.5° C. per minute temperature ramp rate to verify the solubility at high temperatures. The hot solution was after cooled to room temperature with a cooling rate of 0.5° C. per minute to verify if the sample had precipitated after up to 18 hours under magnetic stirring. The same procedure was also used for the solvent mixture solubility tests. The concentrations investigated for the solvent mixture stability were 40 mg/ml and 100 mg/ml. Some solutions in the following example were precipitated by cooling of the solution from a temperature between 50-100° C. to between 10-25° C. at a rate ranging from −0.2 to −0.5° C./minute resulting in a precipitate.

[1] = solvent butyl acetate, 100 mg/mL
[2] = solvent ethyl acetate, 100 mg/mL
[3] = solvent methyl isobutyl ketone (4-methyl-2-pentanone), 100 mg/mL
[4] = solvent methyl isobutyl ketone (4-methyl-2-pentanone), 200 mg/mL

Solubility HT (10 mg/mL): Clear point (solvent butyl acetate, 10 mg/mL): 50 °C
Solubility HT (10 mg/mL): Sol. HT (solvent butyl acetate, 10 mg/mL, high temperature): YES
Solubility HT (20 mg/mL): Clear point (solvent butyl acetate, 20 mg/mL): 56.8 °C
Solubility HT (20 mg/mL): Sol. HT (solvent butyl acetate, 20 mg/mL, high temperature): YES
Solubility HT (100 mg/mL): Clear point [1]: 94.5 °C
Solubility HT (100 mg/mL): Cloudy point [1]: 25 °C
Solubility HT (100 mg/mL): Sol. HT (solvent butyl acetate, 100 mg/mL, high temperature): YES
Solubility HT (100 mg/mL): Re-PPT (solvent butyl acetate, 100 mg/mL, on cooling): YES
Solubility HT (10 mg/mL): Clear point (solvent ethanol, 10 mg/mL): 34 °C
Solubility HT (10 mg/mL): Sol. HT (solvent ethanol, 10 mg/mL, high temperature): YES
Solubility HT (20 mg/mL): Clear point (solvent ethanol, 20 mg/mL): 34 °C
Solubility HT (20 mg/mL): Sol. HT (solvent ethanol, 20 mg/mL, high temperature): YES
Solubility HT (20 mg/mL): Re-PPT (solvent ethanol, 20 mg/mL, on cooling): YES
Solubility HT (100 mg/mL): Clear point (solvent ethanol, 100 mg/mL): 66 °C
Solubility HT (100 mg/mL): Cloudy point (solvent ethanol, 100 mg/mL): 39.7 °C
Solubility HT (100 mg/mL): Sol. HT (solvent ethanol, 100 mg/mL, high temperature): YES
Solubility HT (100 mg/mL): Re-PPT (solvent ethanol, 100 mg/mL, on cooling): YES
Solubility HT (10 mg/mL): Clear point (solvent ethyl acetate, 10 mg/mL): 38 °C
Solubility HT (10 mg/mL): Sol. HT (solvent ethyl acetate, 10 mg/mL, high temperature): YES
Solubility HT (20 mg/mL): Clear point (solvent ethyl acetate, 20 mg/mL): 49.2 °C
Solubility HT (20 mg/mL): Sol. HT (solvent ethyl acetate, 20 mg/mL, high temperature): YES
Solubility HT (100 mg/mL): Clear point [2]: 74.4 °C
Solubility HT (100 mg/mL): Cloudy point [2]: 54.2 °C
Solubility HT (100 mg/mL): Sol. HT (solvent ethyl acetate, 100 mg/mL, high temperature): YES
Solubility HT (100 mg/mL): Re-PPT (solvent ethyl acetate, 100 mg/mL, on cooling): YES
Solubility HT (10 mg/mL): Clear point (solvent methyl isobutyl ketone (4-methyl-2-pentanone), 10 mg/mL): 44 °C
Solubility HT (10 mg/mL): Sol. HT (solvent methyl isobutyl ketone (4-methyl-2-pentanone), 10 mg/mL, high temperature): YES
Solubility HT (20 mg/mL): Clear point (solvent methyl isobutyl ketone (4-methyl-2-pentanone), 20 mg/mL): 49.3 °C
Solubility HT (20 mg/mL): Sol. HT (solvent methyl isobutyl ketone (4-methyl-2-pentanone), 20 mg/mL, high temperature): YES
Solubility HT (100 mg/mL): Clear point [3]: 74.8 °C
Solubility HT (100 mg/mL): Re-PPT after 18 hours at −20° C. [3]: YES
Solubility HT (100 mg/mL): Sol. HT (solvent methyl isobutyl ketone (4-methyl-2-pentanone), 100 mg/mL, high temperature): YES
Solubility HT (200 mg/mL): Clear Point [4]: 84 °C
Solubility HT (200 mg/mL): Cloudy point [4]: 48.5 °C
Solubility HT (200 mg/mL): Sol. HT (solvent methyl isobutyl ketone (4-methyl-2-pentanone), 200 mg/mL, high temperature): YES
Solubility HT (200 mg/mL): Re-PPT (solvent methyl isobutyl ketone (4-methyl-2-pentanone), 200 mg/mL, on cooling): YES
Solubility HT (10 mg/mL): Clear point (solvent toluene, 10 mg/mL): 66 °C
Solubility HT (10 mg/mL): Sol. HT (solvent toluene, 10 mg/mL, high temperature): YES
Solubility HT (20 mg/mL): Clear point (solvent toluene, 20 mg/mL): 77.8 °C
Solubility HT (20 mg/mL): Sol. HT (solvent toluene, 20 mg/mL, high temperature): YES
Solubility HT (100 mg/mL): Clear point (solvent toluene, 100 mg/mL): 96.6 °C
Solubility HT (100 mg/mL): Cloudy point (solvent toluene, 100 mg/mL): 25 °C
Solubility HT (100 mg/mL): Sol. HT (solvent toluene, 100 mg/mL, high temperature): YES
Solubility HT (100 mg/mL): Re-PPT (solvent toluene, 100 mg/mL, on cooling): YES
solubility at 15 min (t-butyl methyl ether, organic solvent or mixture, t-butyl methyl ether, read-out: Solubility): < 10000 µg/mL
solubility (t-butyl methyl ether, organic solvent or mixture, t-butyl methyl ether, high temperature, read-out: Solubility): < 10000 µg/mL
solubility at 15 min (tetrahydrofuran, organic solvent or mixture, solvent tetrahydrofuran, read-out: Solubility at RT): 111000 to 125000 µg/mL (≈ 297 to 335 mM)
solubility at 15 min (toluene, organic solvent or mixture, solvent toluene, read-out: Solubility at RT): 10000 µg/mL (≈ 26.8 mM)
solubility at 15 min (toluene, organic solvent or mixture, toluene, read-out: Solubility): 10000 µg/mL (≈ 26.8 mM)
solubility (toluene, organic solvent or mixture, toluene, high temperature, read-out: Solubility): 20000 to 100000 µg/mL (≈ 53.5 to 268 mM)
solubility at 15 min (water, water, solvent water, read-out: Solubility at RT): < 10000 µg/mL
solubility at 15 min (water, water, water, read-out: Solubility): < 10000 µg/mL
solubility (water, 100 °C, water, solvent water, 10 mg/mL, high temperature, read-out: Solubility HT (10 mg/mL): Sol. HT): < 10000 µg/mL
solubility (water, 100 °C, water, water, high temperature, read-out: Solubility): < 10000 µg/mL
Compound: CC/C(=C(\c1ccc(O)cc1)c1ccc(OCCNC)cc1)c1ccccc1 [(Z)-endoxifen, (Z)-4-(1-(4-(2-(methylamino)ethoxy)phenyl)-2-phenylbut-1-enyl)phenol]
